# Laboratory results from patent publication US20100256014A1, “NOVEL AS160-LIKE PROTEIN, TEST SYSTEMS, METHODS AND USES INVOLVING IT FOR THE IDENTIFICATION OF DIABETES TYPE 2 THERAPEUTICS” (priority 2007, published 2010).
# Tests used:
# Assay type in all cases: cell-based, rat
# AKT (Ser 473) [1] = test: In-cell western, phospho-AKT
# Text: (§1) To study phosphorylation of AKT and AS160 the cells described in Example 2 were used. AS160 is activated by phosphorylation on critical motifs (RXRXXS/T). Known phospho-sites in AS160 are Ser 570, Ser 588, Thr 642 and Thr 751 (Sano et al., 2003). One of the kinases responsible for the activation of AS160 is AKT (Kane et al., 2002). In order to determine the activation status of the isoform2 of AS160 the In-cell western blot technique was used. This method allows the detection of specific proteins directly in 96 well plates without preparation of cell extracts. The specific antibody used in this assay recognizes the phosphorylated Thr 642 phosphorylation site of AS160 and AS160-like protein.
# (§2) For this, cells were seeded into 96-well plates (black, Nunc) and grown for 48 hours. Cells were starved for 3-4 hours with MEMα (PAN) containing 2% horse serum (Cambrex). After removal of medium cells were fixed in 3.7% freshly prepared para-formaldehyde (Sigma) for 20 minutes. Cells were permeabilized with PBS+0.1% Triton-X-100. Blocking was performed with Odyssey blocking buffer (Licor) overnight at 4° C. Primary antibodies were incubated for 2 hours at room temperature. The anti-phosphoAKT (Ser 473, Cat No.: 44-621 G) and the anti-phosphoAS160 (Thr 642, Cat No.: 44-1071 G) were from Biosource. After incubation of the primary antibody, cells were washed with PBS+0.1% Tween20. The secondary anti-rabbit-IgG-800-CW antibody (Rockland Cat No.: 611-131-122) was incubated for 1 hour. For detection of DNA TO-PRO3 dye (Molecular Probes, Cat No.: T3605) was used. Fluorescence signals (FIG. 6) are presented as relative units (RU).
# AS160 (Thr 642) = test: In-cell western, phospho-AS160
# Text: as §1, §2
# L6-GLUT4myc cells [2] = test: Uptake of 2-deoxyglucose in L6-GLUT4myc cells with tet-inducible isoform2 of AS160
# Method: For all examples […]T4myc cells containing isoform2 of AS160 were grown in MEMα (PAN) supplemented with 10% fetal calf serum (FCS) (PAA, tet-free), 2 μg/ml blasticidin (Calbiochem), 0.5 μg/ml puromycin (InvivoGen), 200 μg/ml hygromycin (Invitrogen). Expression of isoform2 of AS160 was induced with 1 μg/ml doxycyclin (Sigma). L6-wildtype (wt) (ATCC: CRL-1458) cells were grown in MEMα+GlutaMax (Gibco) supplemented with 10% FCS (PAA, tet-free) and 1% penicillin/streptomycin (PAA). […]T4myc cells were grown in MEMα+GlutaMax (Gibco) supplemented with 10% FCS (PAA, tet-free), 1% penicillin/streptomycin (PAA) and 2 μg/ml blasticidin (Calbiochem). All cells were grown at 37° C. and 5% CO2. […]T4myc cells containing isoform2 of AS160 were incubated in starve medium (MEMα) 3-4 hours prior to each experiment. To examine glucose uptake of the cells, the respective cells were plated in 96 well Cytostar-T scintillating microplates (Amersham). After 48 hours cells were serum-starved (3-4 hours) and treated with inhibitors as indicated. Uptake of 2-deoxyglucose (0.01 MBq per well, Amersham) was performed as already described (Voss et al., 2005). Nonspecific uptake was determined in the presence of 40 μM cytochalasin B (Calbiochem). This value was subtracted from all other values. Measurement occurred in a Wallac Microbeta counter (Perkin Elmer). Uptake of 2-deoxyglucose is presented as counts per […] (cpm).
# GLUT4-myc = test: Immunofluorescence localization of GLUT4-myc; conditions: insulin 100 nM, 20 minutes; L6-GLUT4-myc-tetR-AS160-like
# Method: Cells were grown on sterile cover slides in 12 well plates. Expression of isoform2 of AS160 was induced with doxycyclin treatment for 48 hours. Serum-starved cells were treated with 100 nM insulin for 20 minutes or were left untreated. After stimulation, cells were fixed in 3.75% para-formaldehyde (Sigma) for 20 minutes. Subsequently, cells were permeabilised with 0.1% TritonX100 in PBS (Icon Biomedicals) or left unpermeabilised (as indicated) for 5 minutes at room temperature. The permeabilisation procedure allows the detection of intracellular localized compartments. Membrane-bound proteins are visualized without permeabilising the cells. Blocking of cells occurred for a minimum of 1 hour in PBS+1% BSA (USB). Primary antibodies (monoclonal anti-myc, Santa Cruz, sc-40 and polyclonal anti-AS160 Upstate) were incubated overnight. The secondary antibodies used are anti-rabbit Alexa488 to detect isoform2 of AS160 and anti-mouse A546 to detect GLUT4-myc. Incubation occurred is for 1 hour (dark). Cells were mounted in 15 μl Dako Cytomation Fluorescent Mounting Medium (DakoCytomation), examined by confocal laser-scanning microscopy with Leica DM IRE2 and analyzed with Leica DM SDK software.
# GLUT4 = GLUT4 translocation, laser-scanning fluorescence microplate cytometry (ACUMEN)
# Method: For this purpose, a technique suitable for screening of compounds was applied. Laser-scanning fluorescence microplate cytometry (ACUMEN technique, LIT) allows the distinct multiparametric analysis of single fluorescent cells in microplates (Bowen and Wylie, 2006). For laser-scanning fluorescence microplate cytometer (Acumen) cells were plated in 96 well plates (Biocat, black). Serum-starved cells were treated as indicated. Briefly, cells were fixed in 3.75% para-formaldehyde (Sigma) for 20 minutes. Subsequently, quenching occurred with […] NH4Cl. Cells were blocked with an adequate blocking solutions for a minimum of 1 hour. Primary antibody (monoclonal anti-myc 9E10, Santa Cruz, sc-40) was incubated for 1 hour. The secondary goat-anti mouse IgG (Alexa Fluor 488, Molecular Probes) was incubated in the presence of Sytox-orange for 1 hour (Bowen and Wylie, 2006).
# Based on this highly sensitive procedure it is possible to screen various cell numbers for plasma-membrane based GLUT4-myc-display. Cells were counter-stained with a DNA dye (SytoxOrange) to confirm equal cell numbers.
# AKT (Ser 473) [3] = test: Western blot of AKT phosphorylation (Ser 473)
# Method: For Western blot analysis proteins were separated on SDS-PAGE gels (4-12% resolving gel, Invitrogen), transferred to PVDF membranes (Roche) and blocked with Roti-Block® (Roth) for 1 hour. Membranes were incubated with primary antibodies overnight. The anti-AS160 antibody was from Upstate. Membranes were washed in TBST and incubated with the appropriate secondary horseradish peroxidase conjugated antibody (Santa Cruz). Immunoreactive bands were visualized with LumiLight (Roche) and detected with Lumi-lmager (Böhringer Ingelheim).
# In order to examine tetracycline- and insulin-dependent expression of isoform2 of AS160 protein in L6-GLUT4myc cells containing AS160-like, a western blot analysis was performed. The expression of AS160-like protein was induced with 1 μg/ml doxycyclin for 48 hours as described above. Subsequently, the cells were stimulated with insulin (5 nM to 50 nM; Sanofi-Aventis) for 20 minutes. Cell extracts were prepared, separated via SDS-PAGE and transferred to a PVDF membrane as described above.
# The AKT inhibitor Calb. had no effect on the phosphorylation of AKT (Ser 473) (FIG. 11A). […] Phosphorylation of AKT on Ser 473 was detected with a phospho-specific antibody from Biosource (Cat No.: 44-621G).
# L6-GLUT4myc cells [4] = test: Tetracycline-inducible GFP expression (functionality of the tet-repressor); conditions: pCDNA5/TO-GFP; addition of doxycyclin; data not shown
# Method: L6-GLUT4myc cells containing AS160-like were grown in MEMα (PAN) supplemented with 10% fetal calf serum (FCS) (PAA, tet-free), 2 μg/ml blasticidin (Calbiochem), 0.5 μg/ml puromycin (InvivoGen), 200 μg/ml hygromycin (Invitrogen). Functionality of the tet-repressor was controlled with a tetracycline-inducible GFP expression plasmid (pCDNA5/TO-GFP). In the absence of tetracycline (or doxycyclin) only a small number of cells express GFP. Addition of doxycyclin increases the number of GFP expressing cells about 10 fold (data not shown).
# [5] = metformin 800 μM overnight, normal and insulin-resistant conditions
# [6] = with doxycyclin-induced expression of isoform 2 of AS160
# [7] = without expression of isoform 2 of AS160
# [8] = high glucose plus insulin conditions
# [9] = high glucose plus insulin overnight (25 mM glucose+10 nM insulin)
compound,measurement,setting,value
"CN(C)C(=N)N=C(N)N [metformin, dimethylbiguanide, reference compound]",effect on activation of AKT,AKT (Ser 473) [1]; [5],no effect
same,effect on activation of AS160,AS160 (Thr 642); [5],no effect
insulin like growth factor-1 [IGF-1],"uptake of glucose (2-deoxyglucose), fold increase after stimulation",L6-GLUT4myc cells [2]; [6],up to 5 fold
same,"uptake of glucose (2-deoxyglucose), fold increase after stimulation",L6-GLUT4myc cells [2]; [7],3 fold
insulin,localization of GLUT4-myc,GLUT4-myc,induces the translocation of GLUT4-myc to the plasma membrane
same,AKT phosphorylation signal compared to untreated conditions (normal Glc),AKT (Ser 473) [1]; [8],72%
same,AKT (Ser 473) phosphorylation under insulin-resistant conditions,AKT (Ser 473) [1]; [9],dose-dependent manner
same,AKT phosphorylation (Ser 473),"AKT (Ser 473) [1]; normal conditions, insulin 20 minutes",dose-dependent manner
same,increased translocation of GLUT4 to the plasma membrane,"GLUT4; 100 nM insulin 20 minutes, doxycyclin-induced expression of AS160-like protein",~15%
same,GLUT4 translocation,GLUT4; 100 nM insulin alone (no AS160-like expression),slightly induced
same,phosphorylation of AKT (Ser 473),"AKT (Ser 473) [3]; insulin 5 nM to 50 nM, 20 minutes",induced the phosphorylation of AKT (Ser 473)
same,time at which the maximum of glucose uptake is observed,"L6-GLUT4myc cells [2]; 50 nM insulin, time points 5, 15, 30 minutes",≤ 5 min
same,"uptake of glucose (2-deoxyglucose), fold increase after stimulation",L6-GLUT4myc cells [2]; [6],up to 4 fold
same,AS160 phosphorylation signal compared to untreated conditions (normal Glc),AS160 (Thr 642); [8],72%
same,AS160 (Thr 642) phosphorylation under insulin-resistant conditions,AS160 (Thr 642); [9],dose-dependent manner
same,phosphorylation of full-length or isoform2 of AS160 (Thr 642),"AS160 (Thr 642); normal conditions, doxycyclin-induced cells, insulin 20 minutes",dose-dependent manner
"C[C@H]1c2cccc(O)c2C(O)=C2C(=O)[C@]3(O)C(O)=C(C(N)=O)C(=O)[C@@H](N(C)C)[C@@H]3[C@@H](O)[C@@H]21 [doxycyclin, reference compound]",increase of glucose uptake induced by doxycyclin,"L6-GLUT4myc cells [2]; doxycyclin 48 hours, insulin 20 minutes, correlated with isoform2 of AS160 protein levels",dose-dependent manner
same,increase of the number of GFP expressing cells,L6-GLUT4myc cells [4],about 10 fold
"1 L-6-hydroxymethyl-chiro-inositol 2-(R)-2-O-methyl-3-O-octadecylcarbonate [AKT inhibitor Calb., reference compound]",effect on insulin-stimulated phosphorylation of AKT (Ser 473),"AKT (Ser 473) [3]; pre-incubation 1 hour (wortmannin 200 nM, AKT inhibitor Calb. 50 μM), then insulin 10 nM 20 minutes",no effect
"NC(=O)c1ncn([C@@H]2O[C@H](CO)[C@@H](O)[C@H]2O)c1N [AICAR, 5-Aminoimidazole-4-carboxaide 1-beta-D-ribofuranoside, reference compound]",effect of expression of isoform 2 of AS160 on stimulated glucose uptake,L6-GLUT4myc cells [2]; with vs without isoform 2 of AS160,no additional effect
same,"uptake of glucose (2-deoxyglucose), fold increase after stimulation",L6-GLUT4myc cells [2]; [7],1.5 fold
"N#CC(=C(/N)Sc1ccccc1N)/C(C#N)=C(\N)Sc1ccccc1N [U0126, reference compound]",effect on uptake of glucose,"L6-GLUT4myc cells [2]; U0126 10 μM, 20 μM, additional stimulation with 5 nM insulin, mainly in cells expressing isoform2 of AS160",significantly improved uptake of glucose
